Measurements as given in PMC6838013, “Insight Into Mosquito GnRH-Related Neuropeptide Receptor Specificity Revealed Through Analysis of Naturally Occurring and Synthetic Analogs of This Neuropeptide Family” (Frontiers in Endocrinology, 2019).
Where “and” joins values, the source holds several entries; their conditions need not be identical. Equal values may be shown once. Non-standard residues stand in square brackets, D forms with d. Residues, ends and D or L forms follow the SMILES beside them. pGlu = O=C1CC[C@@H](C(=O)O)N1

Assays:
[1] = system: A. aegypti ACP receptor (AedaeACPR); assay: Calcium bioluminescence (aequorin) reporter assay of heterologously expressed ACPR; type: cell-based, Aedes aegypti
Source text: Therefore, to improve the bioluminescent signal linked to calcium mobilization following receptor activation, which was required in order to provide greater signal to noise ratio when testing ACP analogs with substitutions leading to intermediate levels of activation of the ACPR, we created a new mammalian expression construct using the dual promoter vector, pBudCE4.1. Specifically, we utilized a cloning strategy as reported previously ([41]) whereby the ACPR was inserted into the multiple cloning site (MCS) downstream of the CMV promoter in pBudCE4.1 using the sense primer SalI-KozakACPR, 5′-[…]-3′ and anti-sense primer XbaI-ACPR, 5′-[…]-3′, which directionally inserted the ACPR within the MCS downstream of the CMV promoter. Secondly, the murine homolog (Gα15) of the human promiscuous G protein, Gα16, which indiscriminately couples a wide variety of GPCRs to calcium signaling ([42]) was inserted into the MCS downstream of the EF1-α promoter in pBudCE4.1 using the sense primer NotI-Gα15, 5′-[…]-3′ and anti-sense primer BglII-Gα15, 5′-[…]-3′, which directionally inserted the murine Gα15 within the MCS downstream of the EF1-α promoter.
(§1) Functional activation of the AedaeACPR and AedaeAKHR-IA receptors was carried out following a previously described mammalian cell culture system involving a Chinese hamster ovary (CHO)-K1 cell line stably expressing aequorin ([43]). Cells were grown in DMEM:F12 media containing 10% heat-inactivated fetal bovine serum (Wisent, St. Bruno, QC), 200 μg/mL Geneticin, 1x antimycotic-antibiotic to approximately 90% confluency, and were transiently transfected using either Lipofectamine LTX with Plus Reagent or Lipofectamine 3000 transfection systems (Invitrogen, Burlington, ON) following manufacturer recommended DNA to transfection reagent ratios. Cells were detached from the culture flasks at 48 h post-transfection using 5 mM EDTA in Dulbecco's PBS. Cells were then prepared for the receptor functional assay following a procedure described previously ([27]). Stocks of peptide analogs of ACP and AKH were used for preparation of serial dilutions all of which were prepared in assay media (0.1% BSA in DMEM:F12) and loaded in quadruplicates into 96-well white luminescence plates (Greiner Bio-One, Germany). Cells were loaded with an automatic injector into each well of the plate containing different peptide analogs at various concentrations as well as negative control (assay media alone) and positive control wells (50 μM ATP). Immediately after injection of the cells, luminescence was measured for 20 s using a Synergy 2 Multi-Mode Microplate Reader (BioTek, Winooski, VT, USA). Calculations, including determination of EC50 values, were conducted in GraphPad Prism 7.02 (GraphPad Software, San Diego, USA) from dose-response curves from 3 to 4 independent biological replicates.

[2] = target: A. aegypti AKHR-IA receptor (AKHR-IA) (Aedes aegypti, UniProt A0A2P1A8S4); assay: Calcium bioluminescence (aequorin) reporter assay of heterologously expressed AKHR-IA; type: cell-based; conditions: for Fold-reduction in activity relative to Aedae-AKH: AKHR-IA in CHO-K1 aequorin cells, relative to native Aedae-AKH; for EC50: CHO-K1 cells stably expressing aequorin, transiently transfected with AKHR-IA (pcDNA3.1+), luminescence 20 s, 3 to 4 independent biological replicates, ND = no determined EC50 due to minimal or no detectable activity up to 10 μM
Experimental: For each construct, an overnight liquid culture of clonal recombinant bacteria containing the appropriate plasmid construct was grown in antibiotic-containing LB media and used to isolate midiprep DNA using the PureLink Midiprep kit (Life Technologies, Burlington, ON). Midiprep samples were then quantified and sent for sequencing as described previously ([26], [27]).
as §1

Sequence of A. aegypti AKHR-IA receptor (AKHR-IA) (A0A2P1A8S4 1-410): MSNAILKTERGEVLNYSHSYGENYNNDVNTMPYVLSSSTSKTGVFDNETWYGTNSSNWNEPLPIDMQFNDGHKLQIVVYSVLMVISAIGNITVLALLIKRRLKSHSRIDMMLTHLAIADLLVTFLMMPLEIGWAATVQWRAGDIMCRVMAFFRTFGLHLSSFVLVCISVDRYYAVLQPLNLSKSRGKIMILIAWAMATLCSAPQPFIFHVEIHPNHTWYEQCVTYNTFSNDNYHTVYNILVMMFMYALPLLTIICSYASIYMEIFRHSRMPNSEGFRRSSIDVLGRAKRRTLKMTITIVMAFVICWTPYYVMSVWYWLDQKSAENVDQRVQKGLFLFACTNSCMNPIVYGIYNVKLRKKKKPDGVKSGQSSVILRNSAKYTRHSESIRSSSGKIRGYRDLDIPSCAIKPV

SMILES	Activity on ACPR at the highest tested dose, in words ([1]; 10 μM, Figure 2, ANOVA and Tukey post-test)	Fold-reduction in activity relative to AedaeACP ([1]; ACPR in CHO-K1 aequorin cells, relative to native Aedae-ACP)	Fold-reduction in activity relative to Aedae-AKH [2]	EC50 [2] [nM]	Fold-reduction in activity relative to Aedae-AKH ([2]; listed as V^2-Peram-CAH-II) [fold]	Improved efficacy on AKHR-IA relative to native mosquito AKH ([2]; relative to Aedae-AKH)
CC(C)C[C@H](NC(=O)[C@@H]1CCC(=O)N1)C(=O)N[C@H](C(=O)N[C@@H](Cc1ccccc1)C(=O)N[C@H](C(=O)N1CCC[C@H]1C(=O)NCC(=O)N[C@@H](Cc1c[nH]c2ccccc12)C(=O)NCC(=O)N[C@@H](CCC(N)=O)C(N)=O)[C@@H](C)O)[C@@H](C)O [Bommo-AKH] ([pGlu]LTFTPGWGQ-NH2)	inactive	>1,000 fold	11 fold and 10.9 fold	23.6	–	–
CC(C)C[C@H](NC(=O)[C@@H]1CCC(=O)N1)C(=O)N[C@H](C(=O)N[C@@H](Cc1ccccc1)C(=O)N[C@H](C(=O)N1CCC[C@H]1C(=O)N[C@@H](CC(N)=O)C(=O)N[C@@H](Cc1c[nH]c2ccccc12)C(N)=O)[C@@H](C)O)[C@@H](C)O [Peram-CAH-II] ([pGlu]LTFTPNW-NH2)	–	–	1.0 fold	2.23	–	–
CC(C)[C@H](NC(=O)[C@@H]1CCC(=O)N1)C(=O)N[C@H](C(=O)N[C@@H](Cc1ccccc1)C(=O)N[C@H](C(=O)N1CCC[C@H]1C(=O)N[C@@H](CC(N)=O)C(=O)N[C@@H](Cc1c[nH]c2ccccc12)C(N)=O)[C@@H](C)O)[C@@H](C)O [V^2-PeramCAH-II] ([pGlu]VTFTPNW-NH2)	–	–	68.8 fold	148	69	–
CC(C)C[C@H](NC(=O)[C@@H]1CCC(=O)N1)C(=O)N[C@H](C(=O)N[C@@H](Cc1ccccc1)C(=O)N[C@H](C(=O)N[C@@H](CO)C(=O)N[C@@H](CO)C(=O)N[C@@H](Cc1c[nH]c2ccccc12)C(N)=O)[C@@H](C)O)[C@@H](C)O [Hipes-AKH-I] ([pGlu]LTFTSSW-NH2)	–	–	7.6 fold	16.5	–	–
CC(C)C[C@H](NC(=O)[C@@H]1CCC(=O)N1)C(=O)N[C@H](C(=O)N[C@@H](Cc1ccccc1)C(=O)N[C@H](C(=O)N1CCC[C@H]1C(=O)NCC(=O)N[C@@H](Cc1c[nH]c2ccccc12)C(N)=O)[C@@H](C)O)[C@@H](C)O [Tabat-AKH] ([pGlu]LTFTPGW-NH2)	–	–	0.7 fold	1.52	–	~ 30% and 30%
